The target in one series is T1, delta receptors (Cavia porcellus, UniProt A0A286XTF2).
T1 construct: from tissue
Put plainly: in vitro affinity for delta receptors. It is filed as binding. Particulars: Table 3; read-out: delta rec. IC50. The protocol:
(§1) The "in vitro" study of the affinity of the compounds according to the invention for the three opium receptors is carried out in accordance with the technique described by F. Roman and coll. in J. Pharm. Pharmacol. 1987, 39, p. 404-407 and the study of the affinity for PCP receptors is carried out in accordance with the technique described by Vignon J. and coll. in "Brain Res." 1983; 280, p. 194-7 and 1986; 378, p. 133-41.
(§2) The results shown in table 3 are, for each receptor studied, expressed in IC50, which are the nanomolar concentrations of the dissolved products which are capable of inhibiting 50% of the bonds between the specific radioactive ligand to the receptor under consideration.

For another series, the target named is T2, kappa receptors (Cavia porcellus, UniProt P41144).
T2 construct: from tissue
T2 sequence (P41144 whole entry): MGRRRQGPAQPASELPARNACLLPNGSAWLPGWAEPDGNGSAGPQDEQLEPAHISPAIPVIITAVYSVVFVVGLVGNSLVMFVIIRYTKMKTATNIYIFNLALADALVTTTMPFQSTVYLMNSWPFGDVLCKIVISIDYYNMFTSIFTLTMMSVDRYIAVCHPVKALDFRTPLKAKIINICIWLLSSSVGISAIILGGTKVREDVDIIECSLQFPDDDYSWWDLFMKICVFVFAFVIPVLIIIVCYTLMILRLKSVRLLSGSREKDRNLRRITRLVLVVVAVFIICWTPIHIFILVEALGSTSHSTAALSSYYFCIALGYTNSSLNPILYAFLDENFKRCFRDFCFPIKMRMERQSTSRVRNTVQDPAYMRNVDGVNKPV
Put plainly: in vitro affinity for kappa receptors. It is filed as binding. The protocol: as §1, §2

In the next series the test system is animals. Particulars: in vivo; cited from earlier work.
The next series concerns the target PCP receptors. Put plainly: in vitro affinity for phencyclidine (PCP) receptors. The class given is binding. Particulars: Table 3; read-out: PCP rec. IC50. The protocol:
as §1, §2

The target in the next series is T3, sigma receptors (Cavia porcellus, UniProt Q60492).
T3 construct: sigma receptors of the cerebral membranes of the guinea-pig used in this study; from tissue; host or cells: guinea-pig cerebral membranes
T3 sequence (Q60492 whole entry): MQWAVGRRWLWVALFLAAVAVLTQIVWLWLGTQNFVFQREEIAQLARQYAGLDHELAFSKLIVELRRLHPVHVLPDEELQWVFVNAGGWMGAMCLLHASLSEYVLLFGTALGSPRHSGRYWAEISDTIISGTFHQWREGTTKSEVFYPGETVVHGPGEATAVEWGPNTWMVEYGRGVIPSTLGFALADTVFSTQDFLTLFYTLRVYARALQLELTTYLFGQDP
Put plainly: in vitro affinity for sigma receptors, competition with (+)[3H]SKF10,047. The class given is binding, guinea-pig (cerebral membranes). The protocol:
The test is carried out by incubating solutions of suitable concentrations of the products with standard samples of membranes and determining, after filtration, the residual radioactivity of the solution.

Series [1] is described as follows: protection from convulsions induced by picrotoxin in mice. The class given is in vivo, "Swiss" male mice. To be noted: 50 mg/kg i.p., picrotoxin 24 mg/kg i.p. 30 minutes later, * p<0.05, ** p<0.01, *** p<0.001. How it is done:
b) The psychotropic properties of the compounds were determined by the protection from convulsions induced by picrotoxin in mice, which was realized in accordance with a method derived from that of Krall and coll., "Epilepsia", 1978, 19, p. 409-428.
The administration of picrotoxin to animals causes a convulsive attack characterized by a myoclonic extension syndrome followed by extension of the limbs leading to death of the animals. Certain substances, in particular those which act on the GABA/benzodiazepine/Cl-ionophor complex, provide protection of the animals from these convulsive attacks.
In practice, the study is carried out on groups of 10 "Swiss" male mice weighing about 20 g, to which the product under investigation is administered in aqueous solution either intraperitoneally (i.p.) or orally (p.o.).
An intraperitoneal injection of a solution of picrotoxin in an amount of 24 mg/kg in a volume of 0.2 ml per animal is then performed, either 30 minutes after intraperitoneal administration of the product or 60 minutes after oral administration of the product, the dose of the product injected in this way causing a clonic attack which leads to death of the untreated animals. Under the conditions of the test, suppression of the tonic extension phase is found in the animals treated.
The results are expressed:
either as the percentage of animals protected from this phase under the action of 50 mg/kg compound under investigation administered i.p. or 100 mg/kg p.o.,
or in the ED50 for each of these groups, which is the effective dose of the compound under investigation expressed in mg/kg which protects 50% of animals from this extension phase, the significance value of the results generally being indicated in the following manner: […]

Series [2] is described as follows: inhibition of gastro-duodenal ulcers caused by cysteamine. It is filed as in vivo, Wistar female rats. To be noted: Rattus norvegicus; cysteamine hydrochloride 400 mg/kg s.c.; products orally or subcutaneously; read-out: ED50 - ulceration scores. The protocol: This activity is set in relation to the capacity of the products to cause an increase in the alkaline secretion in the duodenum in anaesthetized animals.
In this test, groups of 6 Wistar female rats with an average weight of 200 g receive a subcutaneous injection of cysteamine hydrochloride in an amount of 400 mg/kg. The products under investigation are administered orally or subcutaneously 1 h or, respectively, 30 minutes before the ulcerogenic agent.
Ten hours thereafter, the rats are sacrificed by elongation and their stomach and duodenum are removed, rinsed with physiological solution and mounted on a card. The presence of ulcers in the antro-pyloric-duodenal zone is examined and their area, expressed in mm^2, is evaluated by multiplying the two main perpendicular axis of the lesion. Statistical analysis of the results is performed with the aid of the Student test for the ulcerated areas in comparison with a control group receiving only excipient.
The results presented in table 5 are expressed in ED50 of ulceration scores, which are the effective doses, expressed in mg/kg product, which cause inhibition of 50% of the ulcerations caused by cysteamine.

The next series concerns the target mu receptors. Put plainly: in vitro affinity for mu receptors. It is filed as binding. Particulars: for pIC50: Table 3, read-out: mu rec. IC50. The protocol: as §1, §2
Series [3] can be described thus: alkaline duodenal secretion in anaesthetized rats. The class given is in vivo, male rats. Particulars: 1 mg/kg intravenously; for Increase AUC 1 2 h: AUC of alkaline flow rate 1 h to 2 h compared with control animals; for Increase in secretion: maximum increase, anaesthetized rats. The protocol:
The activity of the products on alkaline duodenal secretion in rats is studied in accordance with a technique described by FLEMSTROM and coll. Gastroenterology, 1983, 84, p. 787-794.
The test comprises determination every 10 minutes, for 3 hours and in situ, of the alkaline secretion of a duodenal segment 12 mm in length, with no Brunner glands and situated 2 cm from the pylorus.
The study is performed on male rats of about 350 g previously anaesthetized, in which the duodenal segment chosen in cannulated by 2 glass tubes in accordance with the technique described by the author, and in which a luminal perfusate consisting of 5 ml isotonic NaCl solution is maintained at 37° C.
The variations in the intraluminal alkaline secretion are measured by pHmetry every 10 minutes by means of an automated system maintaining a constant pH of 7.4 by in situ addition of a 0.04N solution of hydrochloric acid. Fifty minutes after the start of the experiment, the products under investigation are administered intravenously or intraarterially in an amount of 1 mg/kg and the volume of hydrochloric acid introduced, which is a reflection of the in situ increase in alkaline secretion, is measured every 10 minutes for 3 hours with respect to the start of the experiment, that is to say for 130 minutes after injection of the product under investigation.
The following are determined for each product:
a) The maximum increase in secretion in micro-eq/cm/h under the action of the drug, taking into account the basal secretion of the same animals observed for 50 minutes before administration of the product.
The results are shown in table 6, which follows, for the products (I) according to the invention administered intravenously in an amount of 1 mg/kg.

Series [4] in a line: antagonism of amnesia caused by scopolamine, passive avoidance test. Particulars: for % antagonism of the amnesia: 0.25 mg/kg orally, scopolamine 1 mg/kg i.p. 30 minutes later, latency after 24 hours; for antagonism of amnesia caused by scopolamine (in words): mouse, in vivo. The class given is in vivo, mice. How it is done: The animal is introduced into the illuminated compartment, and when it moves to the dark compartment it receives an electric current (0.35 mA) through the base until it returns to the illuminated compartment, from where it is then removed.
After 24 hours, the operation is repeated. The mouse is replaced in the apparatus and it avoids entering into the dark compartment. The time which elapses before passage into this compartment is recorded; under the conditions of the experiment, the efficacy of the compounds under investigation in antagonizing the amnesic effect of scopolamine, which is administered intraperitoneally in an amount of 1 mg/kg 30 minutes before the animal is first introduced into the apparatus, can be evaluated.
In control mice which have received only scopolamine, the time elapsed before passage after 24 hours is remarkably lower than that observed in the untreated animals.
The study of the products according to the invention by this method is performed on groups of 18 mice and the products are administered orally on the first day in an amount of 0.25 mg/kg 30 minutes before administration of scopolamine i.p.

Setting [5] is: Table 2, (+)[3H]SKF10,047, guinea-pig cerebral membranes, read-out: IC50 (bonding affinity to sigma receptors).
[6] abbreviates: Table 3, read-out: kappa rec. IC50.
The mark [7] stands for this setting: IC50 (bonding affinity to sigma receptors), Table 2, (+)[3H]SKF10,047, guinea-pig cerebral membranes.

pIC50: −log10 of the molar value. Where a name gives a salt, the structure may show the parent alone. Read-outs that look alike come from different tables or passages of the source. A value given as a limit tells only on which side of the number the result lay.

Results on six compounds are retold here after patent publication US5034419A, “N-cycloalkylalkylamines, process for their preparation, their use as medicament and their synthesis intermediates” (L'Oreal, priority 1988, dated 1991).

T1 sequence (A0A286XTF2 1-366): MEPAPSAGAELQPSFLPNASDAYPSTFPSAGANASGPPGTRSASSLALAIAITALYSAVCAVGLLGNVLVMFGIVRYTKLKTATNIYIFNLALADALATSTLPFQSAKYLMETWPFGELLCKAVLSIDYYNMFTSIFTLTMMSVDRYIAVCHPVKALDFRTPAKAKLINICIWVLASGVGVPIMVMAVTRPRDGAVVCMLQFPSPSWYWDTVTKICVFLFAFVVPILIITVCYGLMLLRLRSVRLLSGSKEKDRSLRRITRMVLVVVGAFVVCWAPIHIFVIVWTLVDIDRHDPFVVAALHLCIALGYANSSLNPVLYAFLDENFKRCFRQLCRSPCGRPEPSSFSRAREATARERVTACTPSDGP

For `Cc1ccccc1NC(=N)Nc1ccccc1C` [DTG, ditolylguanidine, reference compound], the pIC50 at delta receptors is 4.48; against kappa receptors (kappa rec. IC50, Table 3), 5.19. In addition, the “toxicity on animals (in words)” value with animals was “excessive toxicity”.
For the compound `CCC(CC=Cc1ccccc1)(c1cccs1)N(C)CC1CC1` (stereo not drawn) [Example 21, α-Cinnamyl-N-cyclopropylmethyl-α-ethyl-N-methyl-2-thiophenemethylamine], the pIC50 at PCP receptors is 5.20; at delta receptors it was 5.13; on sigma receptors (setting [5]), 7.02; at kappa receptors (setting [6]) it was 5.92; on mu receptors it was 5.81. For the same compound, the “i.p.: % prot. (inhibition of convulsions induced by picrotoxin)” value in series [1] turned out to be 50%. Also, the ED50 in series [2] is 48.2 mg/kg.
Take `CCC(CC=Cc1ccccc1)(c1ccccc1)N(C)CC1CCCCC1` (stereo not drawn) [Example 7, α-Cinnamyl-N-cyclohexylmethyl-α-ethyl-N-methyl-benzylamine]: the pIC50 was 4.29 at PCP receptors; 4.29 at delta receptors; 7.49 on sigma receptors (setting [5]); 4.14 on kappa receptors (setting [6]); under 4.00 at mu receptors. Besides, the “Increase AUC 1 2 h” value in series [3] came to 52.8. Further, the Increase in secretion in series [3] was 6.0 micro-eq/cm/h. For the same compound, the ED50 in series [2] was found to be 10.5 mg/kg. The “% antagonism of the amnesia” value in [4] was determined as 56%. Also, the “mu rec. relative value of the IC50” value with mu receptors (relative to IC50 of sigma affinity = 1) was over 1000.
Regarding `CCC(CC=Cc1ccccc1)(c1ccccc1)N(C)CC1CC1` (stereo not drawn) [Example 9, α-Cinnamyl-N-cyclopropylmethyl-α-ethyl-N-methyl-benzylamine], the pIC50 is 5.44 at PCP receptors; 4.08 at delta receptors; 7.62 at sigma receptors (setting [7]); 7.62 on sigma receptors (sigma rec. IC50, Table 3); 5.21 on kappa receptors (setting [6]); 4.80 at mu receptors. In addition, the “Increase AUC 1 2 h” value in series [3] is 97.6. This compound also returned an Increase in secretion in [3] of 10.0 micro-eq/cm/h. Besides, the “i.p.: % prot. (inhibition of convulsions induced by picrotoxin)” value in series [1] was 90%. For the same compound, the ED50 in series [2] was found to be 26.2 mg/kg. The “% antagonism of the amnesia” value in series [4] is recorded as 76%. Also, the “antagonism of amnesia caused by scopolamine (in words)” value in series [4] is “conclusive of an activity of the products according to the invention at a low dose”.
For the compound `CCC(CC=Cc1ccccc1)(c1ccccc1)N(C)CC1CCC1` (stereo not drawn) [Example 12, α-Cinnamyl-N-cyclobutylmethyl-α-ethyl-N-methyl-benzylamine], the pIC50 at delta receptors was 4.07; at sigma receptors (setting [5]) it was 7.30; at kappa receptors (setting [6]) it was 5.20; on mu receptors, 5.14. The “Increase AUC 1 2 h” value in [3] was found to be 41.6. The compound also came in with an Increase in secretion in series [3] of 7.0 micro-eq/cm/h. For the same compound, in [2], the ED50 came to 12.2 mg/kg. In series [4], the “% antagonism of the amnesia” value was found to be 98%. For the same compound, in series [4], the “antagonism of amnesia caused by scopolamine (in words)” value is on record as “conclusive of an activity of the products according to the invention at a low dose”.
As for `CCC(CC=Cc1ccccc1)(c1ccccc1)N(C)CC1CC1` (single isomer, unassigned) [Example 10, (+)-α-Cinnamyl-N-cyclopropyl-methyl-α-ethyl-N-methyl-benzylamine hydrochloride], the pIC50 at delta receptors is 4.17; on sigma receptors (setting [7]), 7.89; at sigma receptors (sigma rec. IC50, Table 3), 7.89; on kappa receptors (setting [6]), 4.62. The “Increase AUC 1 2 h” value in series [3] came to 66.2. In series [3], the Increase in secretion was 7.5 micro-eq/cm/h. Moreover, in series [1] (hydrochloride), the “i.p.: % prot. (inhibition of convulsions induced by picrotoxin)” value came out at 50%. In addition, the ED50 in series [2] amounted to 5 mg/kg. In series [4] (hydrochloride), the “% antagonism of the amnesia” value came to 76%.
